Calls of active or inactive are those of the source.
Key:
Type in all cases: functional, cell-based
PC-3 = experiment: Growth inhibition of human PC3 cells at 10 uM after 48 hrs by sulforhodamine B assay
SK-OV-3 = experiment: Growth inhibition of human SKOV3 cells at 10 uM after 48 hrs by sulforhodamine B assay
OVCAR-3 = experiment: Growth inhibition of human OVCAR3 cells at 10 uM after 48 hrs by sulforhodamine B assay
UACC-62 = experiment: Growth inhibition of human UACC62 cells at 10 uM after 48 hrs by sulforhodamine B assay
U-251 = experiment: Growth inhibition of human U251 cells at 10 uM after 48 hrs by sulforhodamine B assay
DU-145 = experiment: Growth inhibition of human DU145 cells at 10 uM after 48 hrs by sulforhodamine B assay
M14 = experiment: Growth inhibition of human M14 cells at 10 uM after 48 hrs by sulforhodamine B assay
NCI-H322M = experiment: Growth inhibition of human NCI-H322M cells at 10 uM after 48 hrs by sulforhodamine B assay
EKVX = experiment: Growth inhibition of human EKVX cells at 10 uM after 48 hrs by sulforhodamine B assay
IGROV-1 = experiment: Growth inhibition of human IGROV1 cells at 10 uM after 48 hrs by sulforhodamine B assay
SK-MEL-2 = experiment: Growth inhibition of human SK-MEL-2 cells at 10 uM after 48 hrs by sulforhodamine B assay
A498 = experiment: Growth inhibition of human A498 cells at 10 uM after 48 hrs by sulforhodamine B assay
TK-10 = experiment: Growth inhibition of human TK10 cells at 10 uM after 48 hrs by sulforhodamine B assay
MOLT-4 = experiment: Growth inhibition of human MOLT4 cells at 10 uM after 48 hrs by sulforhodamine B assay
BT-549 = experiment: Growth inhibition of human BT549 cells at 10 uM after 48 hrs by sulforhodamine B assay
MCF7 = experiment: Growth inhibition of human MCF7 cells at 10 uM after 48 hrs by sulforhodamine B assay
NCI-H460 = experiment: Growth inhibition of human NCI-H460 cells at 10 uM after 48 hrs by sulforhodamine B assay
RPMI-8226 = experiment: Growth inhibition of human RPMI8226 cells at 10 uM after 48 hrs by sulforhodamine B assay
SN12C = experiment: Growth inhibition of human SN12C cells at 10 uM after 48 hrs by sulforhodamine B assay
SNB-19 = experiment: Growth inhibition of human SNB19 cells at 10 uM after 48 hrs by sulforhodamine B assay
K562 = experiment: Growth inhibition of human K562 cells at 10 uM after 48 hrs by sulforhodamine B assay
SF-539 = experiment: Growth inhibition of human SF539 cells at 10 uM after 48 hrs by sulforhodamine B assay
786-0 = experiment: Growth inhibition of human 786-0 cells at 10 uM after 48 hrs by sulforhodamine B assay
ACHN = experiment: Growth inhibition of human ACHN cells at 10 uM after 48 hrs by sulforhodamine B assay
SNB-75 = experiment: Growth inhibition of human SNB75 cells at 10 uM after 48 hrs by sulforhodamine B assay
MDA-MB-468 = experiment: Growth inhibition of human MDA-MB-468 cells at 10 uM after 48 hrs by sulforhodamine B assay
CCRF-CEM = experiment: Growth inhibition of human CCRF-CEM cells at 10 uM after 48 hrs by sulforhodamine B assay
HCT-15 = experiment: Growth inhibition of human HCT15 cells at 10 uM after 48 hrs by sulforhodamine B assay
LOX IMVI = experiment: Growth inhibition of human LOXIMVI cells at 10 uM after 48 hrs by sulforhodamine B assay
SR = experiment: Growth inhibition of human SR cells at 10 uM after 48 hrs by sulforhodamine B assay
HT-29 = experiment: Growth inhibition of human HT-29 cells at 10 uM after 48 hrs by sulforhodamine B assay
OVCAR-4 = experiment: Growth inhibition of human OVCAR4 cells at 10 uM after 48 hrs by sulforhodamine B assay
HCT-116 = experiment: Growth inhibition of human HCT116 cells at 10 uM after 48 hrs by sulforhodamine B assay
NCI-H23 = experiment: Growth inhibition of human NCI-H23 cells at 10 uM after 48 hrs by sulforhodamine B assay
NCI-H522 = experiment: Growth inhibition of human NCI-H522 cells at 10 uM after 48 hrs by sulforhodamine B assay
Malme-3M = experiment: Growth inhibition of human MALME-3M cells at 10 uM after 48 hrs by sulforhodamine B assay
SF-295 = experiment: Growth inhibition of human SF295 cells at 10 uM after 48 hrs by sulforhodamine B assay
HL-60(TB) = experiment: Growth inhibition of human HL-60(TB) cells at 10 uM after 48 hrs by sulforhodamine B assay
CAKI-1 = experiment: Growth inhibition of human CAKI-1 cells at 10 uM after 48 hrs by sulforhodamine B assay
NCI/ADR-RES = experiment: Growth inhibition of human NCI-ADR-RES cells at 10 uM after 48 hrs by sulforhodamine B assay
Hs-578T = experiment: Growth inhibition of human Hs 578T cells at 10 uM after 48 hrs by sulforhodamine B assay
UO-31 = experiment: Growth inhibition of human UO31 cells at 10 uM after 48 hrs by sulforhodamine B assay
RXF 393 = experiment: Growth inhibition of human RXF393 cells at 10 uM after 48 hrs by sulforhodamine B assay
KM12 = experiment: Growth inhibition of human KM12 cells at 10 uM after 48 hrs by sulforhodamine B assay
OVCAR-8 = experiment: Growth inhibition of human OVCAR8 cells at 10 uM after 48 hrs by sulforhodamine B assay
COLO 205 = experiment: Growth inhibition of human COLO205 cells at 10 uM after 48 hrs by sulforhodamine B assay
A549 = experiment: Growth inhibition of human A549/ATCC cells at 10 uM after 48 hrs by sulforhodamine B assay
OVCAR-5 = experiment: Growth inhibition of human OVCAR5 cells at 10 uM after 48 hrs by sulforhodamine B assay
SW-620 = experiment: Growth inhibition of human SW620 cells at 10 uM after 48 hrs by sulforhodamine B assay
T47D = experiment: Growth inhibition of human T47D cells at 10 uM after 48 hrs by sulforhodamine B assay
SK-MEL-5 = experiment: Growth inhibition of human SK-MEL-5 cells at 10 uM after 48 hrs by sulforhodamine B assay
HCC 2998 = experiment: Growth inhibition of human HCC2998 cells at 10 uM after 48 hrs by sulforhodamine B assay
SF-268 = experiment: Growth inhibition of human SF268 cells at 10 uM after 48 hrs by sulforhodamine B assay
MDA-MB-435 = experiment: Growth inhibition of human MDA-MB-435 cells at 10 uM after 48 hrs by sulforhodamine B assay
SK-MEL-28 = experiment: Growth inhibition of human SK-MEL-28 cells at 10 uM after 48 hrs by sulforhodamine B assay
HOP-62 = experiment: Growth inhibition of human HOP62 cells at 10 uM after 48 hrs by sulforhodamine B assay
NCI-H226 = experiment: Growth inhibition of human NCI-H226 cells at 10 uM after 48 hrs by sulforhodamine B assay
MDA-MB-231 = experiment: Growth inhibition of human MDA-MB-231 cells at 10 uM after 48 hrs by sulforhodamine B assay
HOP-92 = experiment: Growth inhibition of human HOP92 cells at 10 uM after 48 hrs by sulforhodamine B assay

Measured: growth inhibition (GI)

O=C1/C(=C\c2cccn2Cc2ccc(F)cc2)c2ccccc2N1c1c(Cl)cccc1Cl
inactive: all assays above

O=C1/C(=C\c2ccc[nH]2)c2ccccc2N1c1c(Cl)cccc1Cl
inactive: all assays above

Source: ChEMBL document CHEMBL4177730, “Rational modification of semaxanib and sunitinib for developing a tumor growth inhibitor targeting ATP binding site of tyrosine kinase” (2018)
